The source of these data is patent US20260365641A1, “Aromatic Acetylene Derivative, Preparation Method Therefor, And Use Thereof” (Zhejiang Hisun Pharmaceutical Co., Ltd., priority 2022, published 2026).

pIC50: −log10 of the molar value. Values after ≈ are worked out from the molar mass of the structure shown.

In the first test the test system is E. coli ATCC 25922. Kind of test: Antibacterial activity, minimum inhibitory concentration (MIC) in vitro, broth dilution. To be noted: Escherichia coli, ATCC25922, 5×10^5 cfu/mL, 35 °C, 18-24 hours. It is filed as cell-based. On the procedure:
(§1) The minimum inhibitory concentration (MIC) in vitro was determined according to CLSI's guidelines, and a minimal broth dilution method was used.
(§2) The test process was briefly described as follows: the tested compound was dissolved in DMSO to prepare a storage solution of […], and then prepared into 11 two-fold-diluted 100× high-concentration working liquids (a final concentration of the system was 64 μg/mL to 0.06 μg/mL) by DMSO. Stains (K. pneumoniae ATCC13883, K. pneumoniae ATCC51504 and E. coli ATCC 25922) frozen at −80 °C with glycerin were inoculated to a solid agar culture medium, placed into an incubator for culturing for 18-24 hours at 35 °C to finish the preparation work of the strains. A proper amount of solid plate culture was collected, re-suspended in normal saline, and uniformly mixed. The turbidity of the bacterial suspension was adjusted to a proper turbidity by a turbidity meter, containing about 1×10^8 cfu/mL of bacteria. Then, the turbidity-regulated bacterial suspension was diluted with a test culture medium (type: CAMHIIB, purchased from BD company) to a bacterial concentration of 5×10^5 cfu/mL, thus finishing the preparation of an inoculation solution. 198 μL of the inoculation solution was inoculated into a 96-well plate, and added with 2 μL 100× high concentration working liquid of the compound, then the 96-well plate was placed at 35 °C for culturing for 18-24 hours.
What is called MIC is the lowest concentration that inhibits growth of the organism. Low readings indicate greater potency, high ones weaker potency. As for `C[C@H](O)c1nccn1Cc1cc(-c2ccc(C#CC3=CCN(C(=O)C4[C@H]5CCC[C@@H]45)CC3)cc2)on1` (stereo partly drawn) [Example 35, ((1R,5S)-bicyclo[3.1.0]hexan-6-yl)(4-((4-(3-((2-((S)-1-hydroxyethyl)-1H-imidazol-1-yl)methyl)isoxazol-5-yl)phenyl)ethynyl)-3,6-dihydropyridin-1(2H)-yl)methanone], it took 2 mg/L (≈ 4.14 µM) to inhibit growth (MIC).

A further test concerns K. pneumoniae ATCC51504. The test is described as above. The conditions noted are these: Klebsiella pneumoniae, 5×10^5 cfu/mL, 35 °C, 18-24 hours. The class given is cell-based. On the procedure: as §1, §2
For `C[C@H](O)c1nccn1Cc1cc(-c2ccc(C#CC3=CCN(C(=O)C4[C@H]5CCC[C@@H]45)CC3)cc2)on1` (stereo partly drawn) [Example 35, ((1R,5S)-bicyclo[3.1.0]hexan-6-yl)(4-((4-(3-((2-((S)-1-hydroxyethyl)-1H-imidazol-1-yl)methyl)isoxazol-5-yl)phenyl)ethynyl)-3,6-dihydropyridin-1(2H)-yl)methanone], 2 mg/L (≈ 4.14 µM) was the least that counted as inhibitory (MIC).

The target of another test is T1, recombinant Pseudomonas aeruginosa LpxC (Pseudomonas aeruginosa, UniProt P47205).
T1 construct: purchased Signalway Antibody AP74647-2
T1 sequence (P47205 1-303): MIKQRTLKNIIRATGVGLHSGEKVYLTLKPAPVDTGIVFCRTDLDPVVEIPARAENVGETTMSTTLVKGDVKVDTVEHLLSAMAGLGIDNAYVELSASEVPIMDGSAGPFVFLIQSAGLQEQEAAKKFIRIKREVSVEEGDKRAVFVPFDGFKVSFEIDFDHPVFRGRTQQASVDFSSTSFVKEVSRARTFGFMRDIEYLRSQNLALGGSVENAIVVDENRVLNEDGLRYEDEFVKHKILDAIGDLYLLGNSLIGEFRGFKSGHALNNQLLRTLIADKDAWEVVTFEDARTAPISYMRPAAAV
Kind of test: Inhibition of enzymatic activity of recombinant Pseudomonas aeruginosa LpxC in vitro. It is filed as biochemical. To be noted: 5 nM LpxC; substrate UDP-3-O—(R-3-hydroxydecanoyl)-GlcNAc; 25 °C, 120 minutes; fluorescamine readout. On the procedure:
The following method was used to determine degrees of inhibition of the compounds of the present invention on the enzymatic activity of recombinant Pseudomonas aeruginosa LpxC in vitro.
The test process was briefly described as follows: the tested compound was first dissolved in DMSO to prepare a 10 mM storage solution. The reaction was carried out in a 96-well microplate. Firstly, 20 μL of recombinant Pseudomonas aeruginosa LpxC (purchased from Signalway Antibody, article number AP74647-2) was added into the wells, and the final concentrations were 5 nM respectively. 5 μL of the compound to be tested was added, diluted in 4-fold, with 8 concentration points, and the concentration range was 0.61-10000 nM. 5 μL of LpxC substrate UDP-3-O—(R-3-hydroxydecanoyl)-GlcNAc (purchased from Biosynth Carbosynth, article number mu75071) was added, wherein a final concentration of the substrate was […], and the substrate was incubated at 25 °C for 120 minutes. Subsequently, 20 μL of 2.0 mg/mL fluorescamine (purchased from sigma aldrich, article number F9015, wherein a solvent was dimethylformamide/acetonitrile (1:1)) was added to the reaction system, mixed evenly and reacted for 10 minutes. Finally, 50 μL of 200 mM sodium phosphate buffer solution (pH 8.0) was added to stop the reaction, and a microplate reader (BMG) was used for reading. An excitation wavelength and an emission wavelength were 390 nm and 495 nm respectively. Compared with the fluorescence intensity ratio of a control group (0.1% DMSO), the percentage inhibition rates of the compounds at each concentration were calculated, and the IC50 values of the compounds were obtained by performing nonlinear regression analysis with logarithmic value of the compound concentration-inhibition rate by GraphPad Prism 5 software, which can be seen in Table 1.
In general, pIC50 refers to the negative decadic logarithm of the IC50, by convention in mol/L. As to `C[C@H](O)c1nccn1Cc1cc(-c2ccc(C#CC3CC4(CCN(C(=O)[C@@H](N)CO)CC4)C3)cc2)on1` [Example 18, (S)-2-amino-3-hydroxy-1-(2-((4-(3-((2-((S)-1-hydroxyethyl)-1H-imidazol-1-yl)methyl)isoxazol-5-yl)phenyl)ethynyl)-7-azaspiro[3.5]nonan-7-yl)propan-1-one], the pIC50 was 8.35.

Turning to `C[C@H](O)c1nccn1Cc1cc(-c2ccc(C#CC3CC4(C3)CN(C(=O)NCCO)C4)cc2)on1` [Example 50, (S)-N-(2-hydroxyethyl)-6-((4-(3-((2-(1-hydroxyethyl)-1H-imidazol-1-yl)methyl)isoxazol-5-yl)phenyl)ethynyl)-2-azaspiro[3.3]heptane-2-carboxamide], the negative logarithm of the IC50 (pIC50) was 7.63.

`C[C@H](O)c1nccn1Cc1cc(-c2ccc(C#CC3CC4(CCN(CCCC(N)=O)CC4)C3)cc2)on1` [Example 8, (S)-4-(2-((4-(3-((2-(1-hydroxyethyl)-1H-imidazol-1-yl)methyl)isoxazol-5-yl)phenyl)ethynyl)-7-azaspiro[3.5]nonan-7-yl)butanamide]: the negative-log IC50 (pIC50) was 7.71.

In the case of `C[C@H](O)c1nccn1Cc1cc(-c2ccc(C#CC3CC4(CCN(CCC(N)=O)CC4)C3)cc2)on1` [Example 9, (S)-3-(2-((4-(3-((2-(1-hydroxyethyl)-1H-imidazol-1-yl)methyl)isoxazol-5-yl)phenyl)ethynyl)-7-azaspiro[3.5]nonan-7-yl)propanamide], the pIC50 was 7.73.

Turning to `C[C@H](O)c1nccn1Cc1cc(-c2ccc(C#CC3CC4(CCNCC4)C3)cc2)on1` [Example 1, (S)-1-(1-((5-(4-((7-azaspiro[3.5]nonan-2-yl)ethynyl)phenyl)isoxazol-3-yl)methyl)-1H-imidazol-2-yl)ethan-1-ol], the pIC50 is 8.02.

As for `C[C@H](O)c1nccn1Cc1cc(-c2ccc(C#CC3CC4(CCN(C(=O)CO)C4)C3)cc2)on1` (stereo partly drawn) [Example 28, (S)-2-hydroxy-1-(2-((4-(3-((2-(1-hydroxyethyl)-1H-imidazol-1-yl)methyl)isoxazol-5-yl)phenyl)ethynyl)-6-azaspiro[3.4]octan-6-yl)ethan-1-one], the pIC50 is 7.85.

As to `C[C@H](O)c1nccn1Cc1cc(-c2ccc(C#CC3CC4(CCN(CCC(=O)O)CC4)C3)cc2)on1` [Example 5, (S)-3-(2-((4-(3-((2-(1-hydroxyethyl)-1H-imidazol-1-yl)methyl)isoxazol-5-yl)phenyl)ethynyl)-7-azaspiro[3.5]nonan-7-yl)propanoic acid], the pIC50 is 8.15.

Turning to `C[C@H](O)c1nccn1Cc1cc(-c2ccc(C#CC3CC4(C3)CN(C(=O)N3CCC(O)CC3)C4)cc2)on1` [Example 51, (S)-(6-((4-(3-((2-(1-hydroxyethyl)-1H-imidazol-1-yl)methyl)isoxazol-5-yl)phenyl)ethynyl)-2-azaspiro[3.3]heptan-2-yl)(4-hydroxypiperidin-1-yl)methanone], the pIC50 was 7.82.

Regarding `C[C@H](O)c1nccn1Cc1cc(-c2ccc(C#CC3CC4(C3)CN(C(=O)CC#N)C4)cc2)on1` [Example 32, (S)-3-(6-((4-(3-((2-(1-hydroxyethyl)-1H-imidazol-1-yl)methyl)isoxazol-5-yl)phenyl)ethynyl)-2-azaspiro[3.3]heptan-2-yl)-3-oxopropanenitrile], the pIC50 is 7.65.

On to `C[C@H](O)c1nccn1Cc1cc(-c2ccc(C#CC3CC4(CCN(CCO)CC4)C3)cc2)on1` [Example 11, (S)-2-(2-((4-(3-((2-(1-hydroxyethyl)-1H-imidazol-1-yl)methyl)isoxazol-5-yl)phenyl)ethynyl)-7-azaspiro[3.5]nonan-7-yl)ethan-1-ol], for which the negative logarithm of the IC50 (pIC50) was 8.06.

As for `C[C@H](O)c1nccn1Cc1cc(-c2ccc(C#CC3CC4(CCN(C5CNC5)CC4)C3)cc2)on1` [Example 30, (S)-1-(1-((5-(4-((7-(azetidin-3-yl)-7-azaspiro[3.5]nonan-2-yl)ethynyl)phenyl)isoxazol-3-yl)methyl)-1H-imidazol-2-yl)ethan-1-ol], the negative logarithm of the IC50 (pIC50) was 7.79.

Take `C[C@H](O)c1nccn1Cc1cc(-c2ccc(C#CC3CC4(CCN(CCCC(=O)O)C4)C3)cc2)on1` (stereo partly drawn) [Example 4, (S)-4-(2-((4-(3-((2-(1-hydroxyethyl)-1H-imidazol-1-yl)methyl)isoxazol-5-yl)phenyl)ethynyl)-6-azaspiro[3.4]octan-6-yl)butanoic acid]: the pIC50 is 7.63.

On to `C[C@H](O)c1nccn1Cc1cc(-c2ccc(C#CC3CC4(CCN(C(=O)CC(=O)O)CC4)C3)cc2)on1` [Example 14, (S)-3-(2-((4-(3-((2-(1-hydroxyethyl)-1H-imidazol-1-yl)methyl)isoxazol-5-yl)phenyl)ethynyl)-7-azaspiro[3.5]nonan-7-yl)-3-oxopropanoic acid], for which the negative logarithm of the IC50 (pIC50) was 8.17.

Take `C[C@H](O)c1nccn1Cc1cc(-c2ccc(C#CC3CC4(CCN(C(N)=O)C4)C3)cc2)on1` (stereo partly drawn) [Example 24, (S)-2-((4-(3-((2-(1-hydroxyethyl)-1H-imidazol-1-yl)methyl)isoxazol-5-yl)phenyl)ethynyl)-6-azaspiro[3.4]octane-6-carboxamide]: the pIC50 was 8.16.

`C[C@H](O)c1nccn1Cc1cc(-c2ccc(C#CC3CC4(CCN(CC(=O)O)CC4)C3)cc2)on1` [Example 10, (S)-2-(2-((4-(3-((2-(1-hydroxyethyl)-1H-imidazol-1-yl)methyl)isoxazol-5-yl)phenyl)ethynyl)-7-azaspiro[3.5]nonan-7-yl)acetic acid]: the pIC50 is 7.64.

On to `C[C@H](O)c1nccn1Cc1cc(-c2ccc(C#CC3CC4(C3)CN(C(=O)C3CCNC(=O)C3)C4)cc2)on1` (stereo partly drawn) [Example 54, 4-(6-((4-(3-((2-((S)-1-hydroxyethyl)-1H-imidazol-1-yl)methyl)isoxazol-5-yl)phenyl)ethynyl)-2-azaspiro[3.3]heptane-2-carbonyl)piperidin-2-one], for which the pIC50 is 7.81.

Consider `C[C@H](O)c1nccn1Cc1cc(-c2ccc(C#CC3CC4(CCN(C(=O)CN)CC4)C3)cc2)on1` [Example 16, (S)-2-amino-1-(2-((4-(3-((2-(1-hydroxyethyl)-1H-imidazol-1-yl)methyl)isoxazol-5-yl)phenyl)ethynyl)-7-azaspiro[3.5]nonan-7-yl)ethan-1-one], for which the pIC50 was 7.99.

Regarding `C[C@H](O)c1nccn1Cc1cc(-c2ccc(C#CC3CC4(CCN(C(=O)CC(N)=O)CC4)C3)cc2)on1` [Example 15, (S)-3-(2-((4-(3-((2-(1-hydroxyethyl)-1H-imidazol-1-yl)methyl)isoxazol-5-yl)phenyl)ethynyl)-7-azaspiro[3.5]nonan-7-yl)-3-oxopropanamide], the pIC50 was 8.35.

For `C[C@H](O)c1nccn1Cc1cc(-c2ccc(C#CC3CC4(C3)CN(Cc3ncc[nH]3)C4)cc2)on1` [Example 46, (S)-1-(1-((5-(4-((2-((1H-imidazol-2-yl)methyl)-2-azaspiro[3.3]heptan-6-yl)ethynyl)phenyl)isoxazol-3-yl)methyl)-1H-imidazol-2-yl)ethan-1-ol], the negative logarithm of the IC50 (pIC50) was 7.67.
